Experimental data from PMC11121064 (International Journal of Molecular Sciences, 2024).
Blank lines part the entries; values can stand above or below the molecule they belong to.

What was measured:
[1] = test system: human BJ fibroblast cell line; test: MTT reduction assay, BJ fibroblasts; assay type: cell-based; details: 72 h
Description: (§1) The cytotoxic activity was measured against the melanoma A375 tumor cell line (ECACC) and the human BJ fibroblast cell line (ATCC) using an MTT reduction assay. The selectivity index (SI) was calculated using the following formula: SI = IC50 (BJ)/ IC50 (A375).
(§2) The A375 cell line was purchased from the European Collection of Authenticated Cell Cultures (ECACC, Salisbury, UK) and the BJ human fibroblast cell line from the American Type Culture Collection (ATCC, Manassas, VA, USA). All the cell lines were grown as a monolayer in standard conditions: 37 °C, 100% humidity, under an atmosphere of 5% CO2. The A375 cells were cultured in Dulbecco’s Modified Eagle Medium supplemented with 15% fetal calf serum and 50 IU/mL penicillin/streptomycin. The BJ cell line was grown in EMEM with EBSS, NEAA and sodium pyruvate with L-Glutamine supplemented, 10% fetal bovine serum and 50 IU/mL penicillin/streptomycin.
(§3) Next, the cells were seeded in 96-well plates at a density of 5000 cells per well and incubated overnight to reach the logarithmic growth phase. […] After 72 h, 10 µL of MTT solution (5 g/L) was added into each well and incubated for an additional four hours. Subsequently, the medium was removed, and 100 µL of dimethyl sulfoxide (DMSO) was added into each well. The absorbance was then measured at 570 nm using a SPECTROstar Nano microplate reader (BMG Biotech Inc., Cary, NC, USA)/Tecan Spark 10M. The mean value from three independent BJ and A375 cell cultures was taken to calculate the cell viability, expressed as a percentage of the control values, i.e., untreated cells assumed as 100%.

[2] = test system: melanoma A375 tumor cell line; test: MTT reduction assay, A375 melanoma cells; assay type: cell-based, human; details: for effect on A375 cell viability: 72 h of exposure; for IC50: MTT, 72 h
Description: as §1
as §2, with “The A375 cells were cultured in Dulbecco’s Modified Eagle Medium supplemented with 15% fetal calf serum and 50 IU/mL penicillin/streptomycin.” left out
as §3

[3] = test system: extrinsic coagulation pathway; test: Prothrombin time (PT) and INR in human citrated plasma; details: up to 100 µmol/L; reference PT 9.7–14.6 s, INR 0.8–1.2
Description: The first stage assessed the changes in plasma hemostasis occurring under the influence of the five test compounds. Plasma was incubated with the tested compounds and ligands at six different concentrations ranging from 0.5 to 100 µmol/L. The plasma was obtained from five different volunteers. To evaluate the impact on the extrinsic coagulation pathway, the prothrombin time (PT) was determined in human citrated plasma, expressed in seconds and as the international normalized ratio (INR) (Figure 6 and Figure 7).
The plasma was used for the hemostasis tests.
The results are presented as means ± standard deviation (SD).

[4] = test system: clot formation and fibrinolysis in human citrate plasma; test: Clot formation and fibrinolysis test (CL-test); details: for CLAUC overall potential for clot formation and fibrinolysis / Fmax maximum clotting / Fvo initial plasma clotting velocity / Lmax maximum lysis / Lvo initial clot fibrinolysis velocity / Sc area under the curve of stable clot formation / Sf area under the fibrinolysis curve / Sr area under the clot formation curve / Tc clot stabilization time / Tf plasma clotting time / Tl fibrinolysis time / Tt thrombin time: mean, n = 3
Description: Following this, the impact of the tested complex compounds and their ligands on the overall clot formation and fibrinolysis potential (CLAUC) and individual kinetic parameters was assessed using the CL-test. The analysis was performed using plasma from three different donors.
The blood samples used were residual materials from routine diagnostic studies, destined for disposal as medical waste. […] Platelet-poor plasma (PPP) and red blood cells were obtained using centrifugation at 3000× g for 10 min at room temperature using a Mikro 22R centrifuge (Hettich Zentrifugen, Tuttlingen, Germany). The plasma was used for the hemostasis tests. Before use, the centrifuged erythrocyte mass was washed three times with physiological saline solution to remove the plasma protein residues and other blood cells.
The influence of the compounds on the overall hemostasis potential was determined using the CL-test through continuous measurement of changes in optical transmittance, as described previously [53, 54]. The experiments were conducted using three-fold diluted human citrate plasma, t-PA and thrombin. […] The results are presented as means ± SD (n = 3). The curves were used to determine the kinetic parameters of clot formation, stabilization and fibrinolysis using dedicated software [51]. The following parameters of clot formation were determined: Tt—thrombin time (s), Fmax—maximum clotting (%T), Tf—plasma clotting time (s), Fvo—initial plasma clotting velocity (%T/min), Sr—area under the clot formation curve (%Txmin). The parameters of the clot stabilization phase comprised Tc—clot stabilization time (s) and Sc—area under the curve of stable clot formation (%Txmin). The parameters of fibrinolysis comprised Lmax—maximum lysis (%T), Tl—fibrinolysis time (s), Lvo—initial clot fibrinolysis velocity (%T/min) and Sf—area under the fibrinolysis curve (%Txmin). Additionally, the overall potential for clot formation and fibrinolysis, i.e., CLAUC (%Txmin), was also estimated.

Structure (SMILES): N.N.[Cl][Pt][Cl] [Cisplatin, cisplatin]
- IC50 [1]: 24 ± 0.8 µM
- effect on A375 cell viability [2]: dose-dependent cytotoxic effect
- IC50 [2]: 8.5 ± 0.3 µM

Structure (SMILES): Clc1ccc(COC(Cn2ccnc2)c2ccc(Cl)cc2Cl)c(Cl)c1 (stereo not drawn) [MCZ, miconazole]
- effect on A375 cell viability [2]: dose-dependent reduction

Structure (SMILES): Cc1ncc([N+](=O)[O-])n1CCO.Cc1ncc([N+](=O)[O-])n1CCO.O=[N+]([O-])[O-].[Ag+] [[(MTZ)2AgNO3]]
- IC50 [1]: 46 ± 1.6 µM
- IC50 [2]: 3 ± 0.3 µM
- prolongation of PT and INR beyond the reference range [3]: do not cause pathological prolongation
- CLAUC overall potential for clot formation and fibrinolysis ([4]; 0.5 µmol/L): 287.9 %*min
- Fmax maximum clotting ([4]; 0.5 µmol/L): 64.4%
- Fvo initial plasma clotting velocity ([4]; 0.5 µmol/L): 126.7 %/min
- Lmax maximum lysis ([4]; 0.5 µmol/L): 61.9%
- Lvo initial clot fibrinolysis velocity ([4]; 0.5 µmol/L): 20.9 %/min
- Sc area under the curve of stable clot formation ([4]; 0.5 µmol/L): 118.4 %*min
- Sf area under the fibrinolysis curve ([4]; 0.5 µmol/L): 125.5 %*min
- Sr area under the clot formation curve ([4]; 0.5 µmol/L): 44.1 %*min
- Tc clot stabilization time ([4]; 0.5 µmol/L): 114.3 s
- Tf plasma clotting time ([4]; 0.5 µmol/L): 61.9 s
- Tl fibrinolysis time ([4]; 0.5 µmol/L): 158.7 s
- Tt thrombin time ([4]; 0.5 µmol/L): 21.3 s
- CLAUC overall potential for clot formation and fibrinolysis ([4]; 1.0 µmol/L): 275.7 %*min
- Fmax maximum clotting ([4]; 1.0 µmol/L): 62.2%
- Fvo initial plasma clotting velocity ([4]; 1.0 µmol/L): 126.3 %/min
- Lmax maximum lysis ([4]; 1.0 µmol/L): 61.5%
- Lvo initial clot fibrinolysis velocity ([4]; 1.0 µmol/L): 19.5 %/min
- Sc area under the curve of stable clot formation ([4]; 1.0 µmol/L): 125.5 %*min
- Sf area under the fibrinolysis curve ([4]; 1.0 µmol/L): 105.1 %*min
- Sr area under the clot formation curve ([4]; 1.0 µmol/L): 45.1 %*min
- Tc clot stabilization time ([4]; 1.0 µmol/L): 124.7 s
- Tf plasma clotting time ([4]; 1.0 µmol/L): 65.9 s
- Tl fibrinolysis time ([4]; 1.0 µmol/L): 175.0 s
- Tt thrombin time ([4]; 1.0 µmol/L): 21.6 s
- CLAUC overall potential for clot formation and fibrinolysis ([4]; 5.0 µmol/L): 343.6 %*min
- Fmax maximum clotting ([4]; 5.0 µmol/L): 70.7%
- Fvo initial plasma clotting velocity ([4]; 5.0 µmol/L): 157.7 %/min
- Lmax maximum lysis ([4]; 5.0 µmol/L): 70.5%
- Lvo initial clot fibrinolysis velocity ([4]; 5.0 µmol/L): 21.9 %/min
- Sc area under the curve of stable clot formation ([4]; 5.0 µmol/L): 169.8 %*min
- Sf area under the fibrinolysis curve ([4]; 5.0 µmol/L): 129.1 %*min
- Sr area under the clot formation curve ([4]; 5.0 µmol/L): 44.7 %*min
- Tc clot stabilization time ([4]; 5.0 µmol/L): 146.7 s
- Tf plasma clotting time ([4]; 5.0 µmol/L): 59.4 s
- Tl fibrinolysis time ([4]; 5.0 µmol/L): 199.0 s
- Tt thrombin time ([4]; 5.0 µmol/L): 19.2 s
- CLAUC overall potential for clot formation and fibrinolysis ([4]; 10.0 µmol/L): 284.4 %*min
- Fmax maximum clotting ([4]; 10.0 µmol/L): 61.4%
- Fvo initial plasma clotting velocity ([4]; 10.0 µmol/L): 121.6 %/min
- Lmax maximum lysis ([4]; 10.0 µmol/L): 60.2%
- Lvo initial clot fibrinolysis velocity ([4]; 10.0 µmol/L): 19.5 %/min
- Sc area under the curve of stable clot formation ([4]; 10.0 µmol/L): 126.7 %*min
- Sf area under the fibrinolysis curve ([4]; 10.0 µmol/L): 117.2 %*min
- Sr area under the clot formation curve ([4]; 10.0 µmol/L): 40.5 %*min
- Tc clot stabilization time ([4]; 10.0 µmol/L): 126.7 s
- Tf plasma clotting time ([4]; 10.0 µmol/L): 62.3 s
- Tl fibrinolysis time ([4]; 10.0 µmol/L): 180.3 s
- Tt thrombin time ([4]; 10.0 µmol/L): 23.3 s
- CLAUC overall potential for clot formation and fibrinolysis ([4]; 50.0 µmol/L): 280.7 %*min
- Fmax maximum clotting ([4]; 50.0 µmol/L): 63.8%
- Fvo initial plasma clotting velocity ([4]; 50.0 µmol/L): 129.0 %/min
- Lmax maximum lysis ([4]; 50.0 µmol/L): 61.8%
- Lvo initial clot fibrinolysis velocity ([4]; 50.0 µmol/L): 22.0 %/min
- Sc area under the curve of stable clot formation ([4]; 50.0 µmol/L): 123.25 %*min
- Sf area under the fibrinolysis curve ([4]; 50.0 µmol/L): 118.6 %*min
- Sr area under the clot formation curve ([4]; 50.0 µmol/L): 38.9 %*min
- Tc clot stabilization time ([4]; 50.0 µmol/L): 119.3 s
- Tf plasma clotting time ([4]; 50.0 µmol/L): 56.9 s
- Tl fibrinolysis time ([4]; 50.0 µmol/L): 164.7 s
- Tt thrombin time ([4]; 50.0 µmol/L): 22.5 s
- CLAUC overall potential for clot formation and fibrinolysis ([4]; 100.0 µmol/L): 318.6 %*min
- Fmax maximum clotting ([4]; 100.0 µmol/L): 68.6%
- Fvo initial plasma clotting velocity ([4]; 100.0 µmol/L): 124.9 %/min
- Lmax maximum lysis ([4]; 100.0 µmol/L): 67.2%
- Lvo initial clot fibrinolysis velocity ([4]; 100.0 µmol/L): 29.6 %/min
- Sc area under the curve of stable clot formation ([4]; 100.0 µmol/L): 146.3 %*min
- Sf area under the fibrinolysis curve ([4]; 100.0 µmol/L): 131.8 %*min
- Sr area under the clot formation curve ([4]; 100.0 µmol/L): 40.4 %*min
- Tc clot stabilization time ([4]; 100.0 µmol/L): 131.3 s
- Tf plasma clotting time ([4]; 100.0 µmol/L): 59.2 s
- Tl fibrinolysis time ([4]; 100.0 µmol/L): 188.7 s
- Tt thrombin time ([4]; 100.0 µmol/L): 22.4 s

- IC50 [2]: 18.5 ± 2.4 µM
Structure (SMILES): Clc1ccc(COC(Cn2ccnc2)c2ccc(Cl)cc2Cl)c(Cl)c1.Clc1ccc(COC(Cn2ccnc2)c2ccc(Cl)cc2Cl)c(Cl)c1.[Ag+].[F][Sb-]([F])([F])([F])([F])[F] (stereo not drawn) [[Ag(MCZ)2SbF6]]
- IC50 [1]: 16 ± 0.9 µM

- IC50 ([2]; Homo sapiens, A-375): > 100 µM
- effect on CLAUC and kinetic parameters of clot formation and lysis ([4]; entire concentration range 0.5–100 µmol/L): no significant differences
Structure (SMILES): Cc1ncc([N+](=O)[O-])n1CCO [MTZ, metronidazole]
- IC50 ([1]; Homo sapiens, Fibroblast): > 100 µM
